Patent publication US20020162794A1, “Anaerobic digestion” (priority 2001, published 2002)
Where “and” joins values, the source holds several entries; their conditions need not be identical. Identical values can stand only once.

Test system: mixed culture from municipal sludge digester
Experiment: Total Solids (TS) of batch anaerobic digester reactors
Protocol: A 30 ml samples is withdrawn from each of the 12 reactors into refractory pans after the weight of empty pans was recorded (say W1). […] The weight of pans with dried sample is then noted (say W2). The difference W2˜W1, gives the weight of solids in 30 ml sample. From this the total Solids concentration in units of g/liter is calculated. This TS parameter is indicative of concentration of total solids in the sample including organic substrate, inert organics and inorganics.
Municipal sludge from the city of Lubbock, Wastewater Treatment Plant was digested in 12 batch digesters. Using twelve batch reactors allowed the collection of control reactors data (i.e., no formate in the reactors) in triplicate, titration studies of increasing formate concentration, and duplicates/triplicates of varying formate concentration. Experiments were conducted in the laboratories of Texas Tech University.
The reactors were setup on Mar. […] The substrate taken was 2 parts of 50 g/liter sucrose solution mixed with 1 part of digested municipal sludge which acts as the seed material for incorporation of microbes into the reactors. The experiments were started with the following protocol. [drawing 1]

## O=C[O-].[Na+] [sodium formate]
1000 ppm, day 2
  Total Solids: 37.6 g/L and 35.9 g/L
1000 ppm, day 7
  Total Solids: 33.8 g/L and 32.5 g/L and 32.2 g/L
1000 ppm, day 16
  Total Solids: 20.3 g/L and 15.8 g/L and 21.4 g/L
1000 ppm, day 55
  Total Solids: 15.6 g/L and 13.2 g/L and 17.3 g/L
1000 ppm, day 243 (so in the source)
  Total Solids: 16.6 g/L and 13.0 g/L and 17.8 g/L
1000 ppm, formate addition at t = 0
  Total Solids: 42.3 g/L and 41.8 g/L and 40.8 g/L
5000 ppm, day 2
  Total Solids: 35.5 g/L
5000 ppm, day 7
  Total Solids: 34.6 g/L
5000 ppm, day 16
  Total Solids: 20.7 g/L
5000 ppm, day 55
  Total Solids: 23.2 g/L
5000 ppm, day 243 (so in the source)
  Total Solids: 22.0 g/L
5000 ppm, formate addition at t = 0
  Total Solids: 47.5 g/L
10000 ppm, day 2
  Total Solids: 44.5 g/L and 52.6 g/L and 48.3 g/L
10000 ppm, day 7
  Total Solids: 36.3 g/L and 45.3 g/L and 43.5 g/L
10000 ppm, day 16
  Total Solids: 34.6 g/L and 41.2 g/L and 31.2 g/L
10000 ppm, day 55
  Total Solids: 36.3 g/L and 36.8 g/L and 33.3 g/L
10000 ppm, day 243 (so in the source)
  Total Solids: 33.4 g/L and 39.6 g/L and 30.7 g/L
10000 ppm, formate addition at t = 0
  Total Solids: 55.1 g/L and 54.9 g/L and 53.4 g/L
100000 ppm, day 2
  Total Solids: 254 g/L and 289.6 g/L
100000 ppm, day 7
  Total Solids: 91.5 g/L and 147.4 g/L
100000 ppm, day 16
  Total Solids: 129 g/L and 151.1 g/L
100000 ppm, day 55
  Total Solids: 128 g/L and 160 g/L
100000 ppm, day 243 (so in the source)
  Total Solids: 125 g/L and 147.8 g/L
100000 ppm, formate addition at t = 0
  Total Solids: 180.4 g/L and 188 g/L
